The source made the active and inactive calls. The rule behind the calls is not given here.
Key:
[1] = test system: PC-3; test: Disruption of microtubules in human PC3 cells at 100 nM after 12 hrs; format: functional, cell-based
[2] = test system: MCF7; test: Antiproliferative activity against human MCF7 cells after 72 hrs by MTT assay; format: functional; conditions: MCF7, 72 h
[3] = Antiproliferative activity against human MDA231 cells after 72 hrs by MTT assay; format: functional; conditions: MDA-MB-231, 72 h
[4] = test system: SK-BR-3; test: Antiproliferative activity against human SKBr3 cells after 72 hrs by MTT assay; format: functional; conditions: SK-BR-3, 72 h
[5] = test system: PC-3; test: Antiproliferative activity against human PC3 cells after 72 hrs by MTT assay; format: functional; conditions: PC-3, 72 h

| GI50 [2] | GI50 [4] | GI50 [5] | Compound | Activity [1] | GI50 [3] |
| --- | --- | --- | --- | --- | --- |
|  |  |  | CC(=O)O[C@H]1C(=O)[C@@]2(C)[C@H]([C@H](OC(=O)c3ccccc3)[C@]3(O)C[C@H](OC(=O)[C@H](O)[C@@H](NC(=O)c4ccccc4)c4ccccc4)C(C)=C1C3(C)C)[C@]1(OC(C)=O)CO[C@@H]1C[C@@H]2O | Active |  |
| 7.5 nM | 20 nM | 15.3 nM | CO[C@@H]1/C=C(C)/C=C/[C@@H](C)/C=C/C(=O)O[C@H](/C(C)=C/C=C(\C)CNC(=O)[C@H](COC(=O)Nc2ccccc2)NC=O)[C@@H](C)/C=C/C=C/[C@@H](OC)CC/C=C(C)\C=C\C1 |  | 12 nM |
| 8.3 nM | 10.5 nM | 9.9 nM | CO[C@@H]1/C=C(C)/C=C/[C@@H](C)/C=C(\C)C(=O)O[C@H](/C(C)=C/C=C(\C)CNC(=O)[C@H](COC(=O)Nc2ccccc2)NC=O)[C@@H](C)/C=C/C=C/[C@@H](OC)CC/C=C(C)\C=C\C1 |  | 8.8 nM |

Source: ChEMBL document CHEMBL1143025, “Synthesis of carbamate derivatives of iejimalides. Retention of normal antiproliferative activity and localization of binding in cancer cells” (2007)
